For orientation: clearance means the rate of elimination divided by the concentration.

Like-named read-outs stand apart in the source and are kept apart here.

The nature of data set [1]: Pharmacokinetics in Beagle dogs. It counts as in vivo. The following applies: Dog; for clearance / half-life / bioavailability: Beagle, plasma; for clearance: intravenous; for clearance / half-life / AUC (Norm)(0-x): 0.25 mg/kg; for bioavailability: 0.25 mg/kg IV or PO. How it is done:
(§1) Pharmacokinetic parameters were determined in Sprague Dawley rats, Beagle dogs and Rhesus monkeys by dosing the compounds intravenously (IV) or orally (PO). A dose of 0.25 mg/kg was administered either IV or PO to each subject with a dosing solution of 0.25 mg/ml in a 30:70 v/v mixture of PEG400:40% Captisol®. Plasma samples were collected at 5 min. (IV only), 15 min., 30 min., 1 h, 2 h, 4 h, 6 h, 8 h, 24 h, 48 h, 72 h, 96 h, 120 h, 144 h, and 168 h. Samples were analyzed by LC-MS/MS (API5000™) to determine the concentration in plasma. Briefly, 50 μL plasma was precipitated with 200 μL acetonitrile containing an appropriate internal standard. Samples were filtered, 500 μL of water was added to each sample and 10 μL of this was injected on a C18 column (2.0 mm×30 mm, 3 μm particle size) and eluted using a gradient LC method with water containing 0.1% formic acid as the aqueous mobile phase, and acetonitrile containing 0.1% formic acid as the organic phase. Electrospray ionization with multiple reaction monitoring was used for MS/MS detection. Plasma concentration of the compounds was determined using a standard curve that was prepared similar to the samples in the respective matrix. Non-compartmental analysis was performed using Watson 7.2 to generate the PK parameters.

For data set [2], the system named is γ-secretase (APP processing), SH-SY5Y cells expressing amyloid β protein (SP4CT cells). In words: APP processing, secreted Aβ40 and Aβ42 from SH-SY5Y (SP4CT) cells, AlphaLisa. The note with it: cell based assay. How it is done:
APP Processing (Assay Quantitates Secreted Aβ Analytes from Cell Lines):
The effect of compounds on the abundance of Aβ40 and Aβ42 peptides generated from SH-SY5Y cells expressing amyloid β protein (SP4CT cells) was determined by an AlphaLisa™ assay. Analogous to an ELISA assay, generation of signal in this AlphaLisa™ assay requires “donor” and “acceptor” beads to be brought in close proximity by specific antibody recognition of either Aβ40 or Aβ42 peptides. The assay was accomplished by removing media from compound-treated SP4CT cells to two different microplates, followed by the addition of donor beads conjugated with streptavidin binding a biotinylated anti-amyloid β monocolonal antibody (clone 408). Acceptor beads directly conjugated with anti-Aβ40 monoclonal antibody (G210) were added to one microplate and anti-Aβ42 monoclonal antibody (12F4) acceptor beads were added to the other. Abundance of Aβ40 and Aβ42 was directly proportional to the luminescent signal generated following excitation of donor beads by laser light.

The subject of data set [3] is T1, gamma secretase-dependent cleavage of the Notch protein, HeLa cells.
T1 construct: HeLa Notch; other: cell based assay, HeLa cells, NotchΔE split-luciferase
In words: Notch processing, split-luciferase assay in HeLa cells. It counts as cell-based. The following applies: cell based assay, HeLa cells, NotchΔE split-luciferase. From the text: (§2) Notch Processing: (Assay Quantitates Notch Intracellular Domain Release in Cell Lines):
(§3) A “split-luciferase” assay is used to measure inhibition of gamma secretase-dependent cleavage of the Notch protein. In this assay, HeLa cells were made to express a Notch protein lacking its extracellular domain (NotchΔE) fused to an N-terminal fragment of luciferase. The same cells also expressed a C-terminal fragment of luciferase fused to the immunoglobulin J kappa recombination signal sequence binding protein (RBP). Upon NotchΔE cleavage by gamma secretase, a Notch intracellular domain (NICD)-N terminal luciferase protein is generated which translocates to the nucleus and binds the RBP-C terminal luciferase fusion, bringing two independently nonfunctional halves of luciferase together to form a functional luciferase enzyme. The activity of luciferase in these cells is directly proportional to the amount of gamma secretase-cleaved Notch. Luciferase activity is determined by the standard techniques of luciferin addition to lysed cells and measurement of total luminescence.

The test system of data set [4] is gamma secretase-dependent cleavage of the Notch protein, HeLa cells. The data set is described as above. In kind it is cell-based. The following applies: ratio HeLa Notch to SY5Y Aβ40.
Text: as §2, §3

Data set [5] can be described thus: Pharmacokinetics in Sprague Dawley rats. The following applies: Rat; for AUC (Norm)(0-x) / clearance / half-life: 0.25 mg/kg; for clearance / half-life / bioavailability: Sprague Dawley, plasma; for clearance: intravenous; for bioavailability: 0.25 mg/kg IV or PO. In kind it is in vivo. How it is done:
as §1

A short description of data set [6]: Pharmacokinetics in Rhesus monkeys. In kind it is in vivo. The note with it: for AUC (Norm)(0-x) / half-life / clearance: 0.25 mg/kg; for half-life / bioavailability / clearance: rhesus monkey, plasma; for bioavailability: 0.25 mg/kg IV or PO; for clearance: intravenous. How it is done:
as §1

Data set [7] concerns the target semi-purified γ-secretase. In words: In vitro APP processing (C100Flag substrate, semi-purified γ-secretase, MESO Scale ELISA), dog brain membranes. It counts as biochemical. The note with it: in vitro assay. How it is done:
(§4) In Vitro APP Processing (Assay Quatitates Aβ Analytes Generated from a Recombinant APPC100Flag Substrate Incubated with Semi-Purified γ-Secretase)
(§5) The effect of compounds on the abundance of Aβ40 and Aβ42 peptides generated from exogenous C100Flag substrate by semi-purified γ-secretase was determined by MESO Scale ELISA. Generation of signal in this MESO Scale assay requires an anti-amyloid monoclonal antibody (clone 408) conjugated with streptavidin to bind to a biotin-coated plate. Specific [Ru(bpy)3]2+-labeled monoclonal antibodies for either Aβ40 (G210) or Aβ42 (12F4) subsequently generate an electrochemiluminescence signal upon electrochemical stimulation. The assay was accomplished by incubating compound, C100Flag substrate and CHAPSO-solubilized P2 membranes from HeLa cells or brains of mouse, rat, or dog. The reaction was then transferred to two different biotinylated microplates for detection of either Aβ40 or Aβ42.

The target in data set [8] is semi-purified γ-secretase. In words: In vitro APP processing (C100Flag substrate, semi-purified γ-secretase, MESO Scale ELISA), mouse brain membranes. In kind it is biochemical. The following applies: in vitro assay. How it is done: as §4, §5
In data set [9] the target is semi-purified γ-secretase. As to the kind of experiment: In vitro APP processing (C100Flag substrate, semi-purified γ-secretase, MESO Scale ELISA), rat brain membranes. The note with it: in vitro assay. It counts as biochemical. How it is done: as §4, §5
For orientation: ELISA stands for enzyme-linked immunosorbent assay.

Another data set deals with CSF Aβ40 and Aβ42. As to the kind of experiment: Example B: CSF Aβ40 and Aβ42 levels and tolerability in rhesus monkeys, once-weekly oral 30 mpk. It counts as in vivo. The note with it: oral once-weekly 30 mpk. How it is done:
Example 1 was administered orally to rhesus monkeys once-weekly at a dose of 30 mpk and levels of Aβ40 and Aβ42 in the cerebrospinal fluid (CSF) were monitored.

For the next data set, the system named is CSF Aβ40. In words: Example A: CSF Aβ40 reduction and tolerability in Rhesus monkeys, 30 mg/kg PO, one week. In kind it is in vivo. From the text:
(§6) Peak lowering of ˜46% was observed 24 hrs after each dose. […] Terminal phase pharmacokinetic characteristics of Example 1 in Rhesus monkey provide continuous inhibition over the course of one week achieving both an average as well as minimum reduction of CSF Aβ40 of >25%.

Data set [10] is described as follows: Example A: PK profile in Rhesus monkeys, 30 mg/kg PO single dose. In kind it is in vivo. The note with it: rhesus monkey, plasma.
Text: as §6

Setting [11] is: Aβ40, read-out: Tissue autonomous Aβ40, Dog.
Setting [12] is: Aβ40, read-out: Tissue autonomous Aβ40, Mouse.
[13] abbreviates: Aβ40, read-out: Tissue autonomous Aβ40, Rat.

Consider `O=S(=O)(N[C@H]1CC[C@@](c2cc(F)ccc2F)(S(=O)(=O)c2ccc(C(F)(F)F)cc2)CC1)C(F)(F)F` [Example 62 from U.S. Pat. No. 6,890,956], for which, in [1], the clearance stood at 0.383 mL/min/kg, the half-life was 254 h, the bioavailability is 55% and the “AUC (Norm)(0-x)” value was determined as 49.5 µM·kg·h/mg. For the same compound, in data set [2] (Aβ40, read-out: SY5Y Aβ40), the IC50 was 0.99 nM. Further, in data set [2] (Aβ42, read-out: SY5Y Aβ42), the IC50 was 0.99 nM. Also, the IC50 in [3] was 154 nM. For the same compound, in [4], the Notch/Aβ40 is listed as 156. Also, in data set [5], the “AUC (Norm)(0-x)” value came out at 6.0 µM·kg·h/mg, the clearance came to 5.9 mL/min/kg, the half-life was 101 h and the bioavailability was found to be 116%.

As for `O=S(=O)(N[C@H]1CC[C@@](c2cc(F)ccc2F)(S(=O)(=O)c2ccc(Cl)cc2)CC1)C(F)(F)F` [MRK-560], the clearance in data set [1] turned out to be 4.7 mL/min/kg; in data set [6], 0.8 mL/min/kg; in data set [5], 2.2 mL/min/kg. Besides, the half-life is 18 h in data set [1], 12 h in data set [6] and 26 h in data set [5]. Also, the bioavailability is 14% in data set [1], 23% in [6] and 67% in data set [5]. Further, the entries for the “AUC (Norm)(0-x)” value in [1] and in data set [6] were 1.1 µM·kg·h/mg and 9.4 µM·kg·h/mg, respectively. In addition, the IC50 in data set [7] (setting [11]) came out at 5.2 nM; in data set [7] (Aβ42, read-out: Tissue autonomous Aβ42, Dog), 1.3 nM; in [2] (Aβ40, read-out: SY5Y Aβ40), 0.72 nM; in data set [2] (Aβ42, read-out: SY5Y Aβ42) it was 0.51 nM; in [3], 112 nM; in [8] (setting [12]) it was 0.8 nM. In addition, the IC50 in [8] (Aβ42, read-out: Tissue autonomous Aβ42, Mouse) stood at 0.4 nM; in data set [9] (setting [13]) it was 1 nM; in data set [9] (Aβ42, read-out: Tissue autonomous Aβ42, Rat) it was 0.4 nM. Also, the Notch/Aβ40 in data set [4] came out at 155.

For the compound `O=S(=O)(N[C@H]1CC[C@@](c2cc(F)ccc2C(F)(F)F)(S(=O)(=O)c2ccc(C(F)(F)F)cc2)CC1)C(F)(F)F` [Example 1, 1,1,1-trifluoro-N-(4-[5-fluoro-2-(trifluoromethyl)phenyl]-4-{[4-(trifluoromethyl)phenyl]sulfonyl}cyclohexyl)methanesulfonamide], the clearance amounted to 0.234 mL/min/kg in [1], 0.07 mL/min/kg in data set [6] and 3.4 mL/min/kg in data set [5]. For the same compound, the half-life in [1] was 713 h; in data set [6], 228 h; in [10] (read-out: plasma t ½), more than 168 h; in [5], 126 h. In addition, the bioavailability in data set [1] amounted to 84%; in data set [6], 84%; in data set [5], 64%. Moreover, the results for the “AUC (Norm)(0-x)” value in [1], in data set [6] and in data set [5] were 99 µM·kg·h/mg, 385 µM·kg·h/mg and 8.7 µM·kg·h/mg, respectively. The IC50 amounted to 1.5 nM in data set [7] (setting [11]); 1.4 ± 0.9 nM in [2] (Aβ40, read-out: SY5Y Aβ40); 518 nM in data set [3]; 2.4 nM in [8] (setting [12]); 1.4 nM in [9] (setting [13]). For the same compound, the Notch/Aβ40 in data set [4] was found to be 370. In the data set with CSF Aβ40 and Aβ42 (over a 3 week period), the GI toxicity entry is on record as “no evidence of GI toxicity”. In addition, the “average reduction in CSF Aβ40 levels relative to vehicle-treated controls” value in the data set with CSF Aβ40 and Aβ42 (over a 3 week period) is on record as “approximately 40%”. In addition, the “average reduction in CSF Aβ42 levels relative to vehicle-treated controls” value with CSF Aβ40 and Aβ42 (over a 3 week period) was “approximately 40%”. Also, the “side-effects leading to study termination” value in the data set with CSF Aβ40 and Aβ42 (study terminated after 3 weeks) is given as “respiratory side-effects unconnected with Notch signaling”. Also, the “minimum inhibition (CSF Aβ40)” value with CSF Aβ40 (24 hrs (day 1) to 144 hrs (day 6)) is more than 25%. Besides, in the data set with CSF Aβ40 (24 hrs after each dose), the “Peak lowering of CSF Aβ40” value was approximately 46%. Also, the “average daily CSF Aβ40 reduction relative to baseline” value in the data set on CSF Aβ40 (over a one week period (168 hrs; 7 days)) is approximately 35%. Besides, the “tolerability (unformed stool)” value in the data set with CSF Aβ40 (over the course of the study) is “no unformed stool or other tolerability issues”. Besides, in [10] (read-out: AUC (0-24)), the AUC(0-t) came out at 138 µM·h.

The values are drawn from patent publication US8609897B2, “Trifluoromethylsulfonamide gamma secretase inhibitor” (Merck Sharp & Dohme Corp., priority 2009, dated 2013).
